Measured values from the supplement of paper PMC8837787.

Test system: Saccharomyces cerevisiae ABC16-Green Monster
Test: growth inhibition at single dose (up to 150 µM), below the 70% cut-off for dose-response; higher = more potent
Conditions: 18 h; 30 °C; YPD
Summary of the method: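 Drug-sensitive S. cerevisiae ABC16-Green Monster cells were grown overnight in YPD at 30 °C and diluted to log phase (OD600 0.1–0.2). Each library compound was added at one dose of 150 µM to 200 µl culture per well in 96-well plates, in biological duplicates, with untreated cultures alongside. OD600 was read at 0 h and after 18 h at 30 °C. The value is percent growth inhibition; compounds below 70% in both replicates were not taken to dose-response.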

| Structure (SMILES) | growth inhibition at single dose [%] |
| --- | --- |
| CCc1nn(C)c(C(=O)NCc2ccc(Oc3ccc(C)cc3)cc2)c1Cl | < 70 |
| CC(=O)c1c[nH]c(C(=O)OCC(=O)NCCc2ccc(C(C)C)cc2)c1 | < 70 |
| COc1cccc(-c2cc3c(Nc4cccnc4)nccc3[nH]2)c1 | < 70 |
| Nc1nccc2ccc(Oc3ccncc3)cc12 | < 70 |
| Cc1cc(OCC(=O)NCc2ccccc2)c2cc(Br)ccc2n1 | < 70 |
| CNc1nc(-c2[nH]c(C)c(C(=O)OC)c2C)cs1 | < 70 |
| c1ccc2cc3c(Nc4ccc(N5CCOCC5)cc4)ccnc3cc2c1 | < 70 |
| CC1CC(C)CN(C(=O)c2ccc(Cl)cc2Cl)C1 (stereo unspecified) | < 70 |
| CC(C)(C)C(=O)N(CCCCCCN1C[C@H](O)[C@@H](O)[C@H](O)[C@H]1CO)C1CCCCCC1 | < 70 |
| CC(=O)O[C@H]1CC[C@]2(C)C3CC[C@]4(C)C(C5=CC(=O)OC5)CC[C@]4(O)C3CC[C@@H]2C1 (stereo partly specified) | < 70 |
| COc1cccc(N(C)S(=O)(=O)c2cccc3cc(C)cnc23)n1 | < 70 |
| COc1ccc(NC(=O)c2ccn[nH]2)cc1NC(=O)c1ccc(Cl)cc1F | < 70 |
| O=C(Nc1ccccc1)c1ccc(CN2CCN(CCOc3ccccc3)CC2)cc1 | < 70 |
| O=C(Nc1ccc(Cl)cc1)Nc1nnc(CSCc2ccc(Cl)cc2)s1 | < 70 |
| COc1ccc(O)c(C(=O)c2cnc3cc4c(cc3c2)OCCO4)c1 | < 70 |
| Cc1cc(OCC(=O)Nc2ccc(C(C)C)cc2)n(C)c(=O)c1C#N | < 70 |
| CCCCn1c(C(C)Oc2ccc(Cl)cc2Cl)nc2cc(S(N)(=O)=O)ccc21 (stereo unspecified) | < 70 |
| O=C(Nc1ccc(Cl)cc1)N1CCN(c2ccc3nncn3n2)CC1 | < 70 |
| Cc1ccc2c(c1)s/c(=N/C(=O)c1cccs1)n2C | < 70 |
| CCCc1ccc(-c2nc(-c3ccccc3)no2)cc1 | < 70 |
| O=C(Nc1ncccc1O)c1ccc(S(=O)(=O)NCc2ccco2)cc1 | < 70 |
| CCC(=O)Nc1nnc(Cc2ccc(OC)c(OC)c2)s1 | < 70 |
| c1ccc(-c2[nH]c3ccccc3c2C(c2ccccn2)N2CCCC2)cc1 (stereo unspecified) | < 70 |
| Cc1cc(=O)nc(N/N=C/c2c(C)nn(-c3ccccc3Cl)c2Cl)[nH]1 | < 70 |

| Structure (SMILES) | growth inhibition at single dose [%] |
| --- | --- |
| Cc1nc(/C=C/C(=O)Nc2nc3ccccc3[nH]2)cs1 | < 70 |
| Cc1c(-c2ccccc2)sc2[nH]c(CC(N)=O)nc(=O)c12 | < 70 |
| CCOc1ccc(-n2cc(-c3ccccc3)c3c(SCc4cc(C)ccc4C)ncnc32)cc1 | < 70 |
| CN(Cc1ccc(C(N)=O)cc1)c1ncnc2ccccc12 | < 70 |
| CCCCC(O)(c1ccc(Cl)cc1)C(CN1CCOCC1)c1ccc(Cl)cc1 (stereo unspecified) | < 70 |
| CC(C)N=c1cc2n(-c3ccc(Cl)cc3)c3ccccc3nc-2cc1Nc1ccc(Cl)cc1 | < 70 |
| Cc1ccc(CC(=O)NCc2ccc(C#N)cc2)cc1 | < 70 |
| Cc1cccc(-c2nc(Nc3ccncn3)c3sccc3n2)n1 | < 70 |
| O=C(CN1CCN(C(=O)/C=C/c2sc3ccccc3c2Cl)CC1)NC1CC1 | < 70 |
| CC(=O)N1CCN(c2ccc(Oc3ccc(Cl)cc3O)cc2)CC1 | < 70 |
| O=C1CC(O)(C(F)(F)C(F)(F)F)Oc2ccccc21 (stereo unspecified) | < 70 |
| COc1ccc2c(c1)CCCN2C(=O)c1occc1C | < 70 |
| O=C(CSc1ccc2nnc(-c3cccc(F)c3)n2n1)Nc1ccc2c(c1)OCO2 | < 70 |
| CN1CCC(c2cc(-c3ccncc3)c(-c3ccc(F)cc3)[nH]2)CC1 | < 70 |
| Cc1cc(C(=O)Oc2ccccc2C(N)=O)c(C)n1Cc1ccco1 | < 70 |
| COCCN(C(=O)Cc1cccs1)C(C(=O)NCc1ccc(OC)cc1)c1ccc(C(C)C)cc1 (stereo unspecified) | < 70 |
| CCCCN(CCCC)S(=O)(=O)c1ccc(NC(=O)c2ccco2)cc1 | < 70 |
| C[C@H](C(N)=O)N1CCCC[C@H]1c1ccc(OCc2cccc(F)c2)cc1 | < 70 |
| COc1ccc(NC(=O)C2c3ccccc3C(=O)N(CC(C)C)C2c2cccs2)cc1Cl (stereo unspecified) | < 70 |
| CCCc1c(C)nc2ccc(Br)cc2c1O | < 70 |
| COC(=O)c1ccccc1NC(=O)/C=C/c1ccc(N2CCCS2(=O)=O)cc1 | < 70 |
| CNc1snc(C)c1C(=O)OCc1coc(-c2cccs2)n1 | < 70 |
| CCN(CC)CCCN1CCN(C(=O)c2cccc(-c3noc(C(F)(F)F)n3)c2)CC1 | < 70 |
| COc1ccc(-c2csc3ncnc(NCC(=O)NC(C)C)c23)cc1 | < 70 |

| Structure (SMILES) | growth inhibition at single dose [%] |
| --- | --- |
| Cc1ccc(S(=O)(=O)N2c3ccc(S(N)(=O)=O)cc3CC2C)cc1 (stereo unspecified) | < 70 |
| CSc1nc(=O)nc(-c2ccc(Cl)cc2)[nH]1 | < 70 |
| O=C(c1c[nH]c2ccccc12)C(c1ccccc1)N1CCN(CC(=O)N2CCCC2)CC1 (stereo unspecified) | < 70 |
| O=C(Nc1ccc(N2CCOCC2)nc1)c1ccc(S(=O)(=O)N2CCCc3ccccc32)cc1 | < 70 |
| Cc1ccccc1C(=O)N1N=C(Nc2ccccc2)SC1(C)C | < 70 |
| CCS(=O)(=O)N(Cc1ccco1)Cc1cc2ccc(C)cc2nc1O | < 70 |
| Cc1ccc2nc(C)cc(Nc3cccc(C(F)(F)F)c3)c2c1 | < 70 |
| COc1ccccc1CNC(=O)CCn1c(=O)[nH]c2ccccc2c1=O | < 70 |
| O=C(Nc1cccc(C2=NCCN2)c1)Nc1cccc(C2=NCCN2)c1 | < 70 |
| Cc1cccc(NC(=O)c2cc(S(=O)(=O)N(C)c3ccc(F)cc3)ccc2Cl)n1 | < 70 |
| CC(C)(C)c1ccc(C(=O)NCCOc2ccccc2Cl)cc1 | < 70 |
| CC(C)(C)c1ccc(C(=O)Nc2nc3ccccc3s2)cc1 | < 70 |
| Cc1ccc(OCCNC(=O)c2[nH]c3c(c2C)C(=O)CCC3)c(C)c1 | < 70 |
| COc1ccc2nc(C)cc(Nc3cccc(O)c3)c2c1 | < 70 |
| COc1cc(NC(C)CCCN)c2ncccc2c1 (stereo unspecified) | < 70 |
| Clc1ccc2nc(CSc3nnc4c(n3)[nH]c3ccccc34)cn2c1 | < 70 |
| Cc1nn2c(O)c3c(nc2c1-c1ccc(F)cc1)CCCC3 | < 70 |
| CCOC(=O)c1sc2ncn(-n3c(C)ccc3C)c(=O)c2c1C | < 70 |
| O=C(Nc1nc(CN2CCOCC2)cs1)c1ccc(-c2ccc(Cl)cc2)s1 | < 70 |
| CCOC(=O)c1cnc2c(C)cccc2c1Nc1ccc(C(C)=O)cc1 | < 70 |
| CCCCOc1ccc(C(=O)Nc2cc(C)on2)cc1 | < 70 |
| Cc1ccc2cc3c(N)c4c(C)ccc(C)c4nc3nc2c1 | < 70 |
| CC(=O)NC(C)CCc1ccc(C(=O)Cn2ncc(Cl)c(Cl)c2=O)cc1 (stereo unspecified) | < 70 |
| COc1ccc(C2=NOC(C(N)=O)C2)cc1OC (stereo unspecified) | < 70 |

| Structure (SMILES) | growth inhibition at single dose [%] |
| --- | --- |
| O=C(CCl)NCCOc1ccc(Cl)cc1Cl | < 70 |
| N#Cc1ccnc(N2CCN(C(=O)c3cccc(-n4cccc4)c3)CC2)c1 | < 70 |
| COC(=O)CCSc1c2ccc(Cl)cc2nc2ccc(OC)cc12 | < 70 |
| Cc1ccc(C(NCC(=O)Nc2sccc2C(N)=O)c2cccs2)cc1 (stereo unspecified) | < 70 |
| Nc1ncnc2c1c(-c1cnc3ccccc3c1)nn2CC1CCNCC1 | < 70 |
| Cc1ccc(S(=O)(=O)c2c(COC(=O)c3cccc(C)c3)c(-c3ccccc3)nn2C)cc1 | < 70 |
| COc1ccc(C(=O)NC(c2ccc(Cl)cc2Cl)c2cc(Cl)c3cccnc3c2O)cc1 (stereo unspecified) | < 70 |
| CC(=O)C1C2C(=O)N(C(C)(C)C)C(=O)C2C2C=Cc3ccc4cccnc4c3N21 (stereo unspecified) | < 70 |
| CC(=O)NCCCc1ccc(C(=O)COC(=O)c2ccccc2-n2cnnn2)cc1 | < 70 |
| Cc1cc(C(=O)Nc2nc3ccccc3s2)c(C)n1C(C)C | < 70 |
| CC/N=c1\scc(-c2ccc(Cl)cc2)n1/N=C/c1ccc[nH]1 | < 70 |
| Cc1cc(C(=O)COC(=O)c2[nH]nc3ccccc23)c(C)n1Cc1cccs1 | < 70 |
| COC(=O)c1ccc(Cl)c2c1C1C=CCC1C(c1cccc3ccccc13)N2 (stereo unspecified) | < 70 |
| Cc1c(C)n(CCCO)c2ncn3nc(-c4ccc(N(C)C)cc4)nc3c12 | < 70 |
| CCCn1c(=O)n(CC(=O)Nc2ccc(C)c(C)c2)c(=O)c2c1nc(C(F)(F)F)n2CCOC | < 70 |
| O=C(Nc1ccc2nc(-c3ccccc3Cl)[nH]c2c1)c1ccc(=O)[nH]n1 | < 70 |
| Cc1cc(C(=O)COc2ccc(C(N)=O)cc2)c(C)n1-c1ccc2c(c1)OCO2 | < 70 |
| FC(F)(F)c1nnc2ccc(Cl)nn12 | < 70 |
| Cc1cccc(C2CC(=O)c3cnn(-c4nc(C)cc(C)n4)c3C2)c1 (stereo unspecified) | < 70 |
| CN(C)c1ccc(-c2nc3cc(N)ccc3[nH]2)cc1 | < 70 |
| Nc1cccnc1Nc1ccc(Cl)cc1 | < 70 |
| Oc1ccc(Cl)cc1CNc1nc2ccccc2[nH]1 | < 70 |
| C=CCc1c(C)nc2ccccc2c1O | < 70 |
| O=C(CCc1ccccc1)c1ccccc1OCC(O)CN1CCCCC1 (stereo unspecified) | < 70 |
